In ChEMBL document CHEMBL1201862, “PubChem BioAssay data set” (2004):
Several values for one entry are separate records, joined by “and”; a condition that tells them apart may be missing. Equal entries are not always repeated. Blank lines part the entries; values can stand above or below the compound they belong to. Activity calls are given as the source filed them.

Legend:
Kallikrein-7 = Kallikrein-7 (Homo sapiens, UniProt P49862); assay: Fluorescence Intensity-based biochemical primary high throughput dose response assay to identify activators of kallikrein-7 (K7) zymogen.
Chain of Kallikrein-7 (P49862 whole entry): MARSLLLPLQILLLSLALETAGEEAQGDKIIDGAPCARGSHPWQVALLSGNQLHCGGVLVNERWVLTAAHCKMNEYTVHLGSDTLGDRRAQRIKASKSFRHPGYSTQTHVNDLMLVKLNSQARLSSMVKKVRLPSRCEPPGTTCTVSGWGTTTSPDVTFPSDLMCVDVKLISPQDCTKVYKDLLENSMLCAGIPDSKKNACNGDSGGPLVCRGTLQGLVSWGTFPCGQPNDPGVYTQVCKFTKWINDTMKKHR

Trypsin = Trypsin (Sus scrofa, UniProt P00761); assay: porcine trypsin inhibitors, dose response, selectivity assay for Rce1 protease inhibitor project, biochemical, quenched peptide fluorescence, cherry-pick (AID 488789)
Chain of Trypsin (P00761 whole entry): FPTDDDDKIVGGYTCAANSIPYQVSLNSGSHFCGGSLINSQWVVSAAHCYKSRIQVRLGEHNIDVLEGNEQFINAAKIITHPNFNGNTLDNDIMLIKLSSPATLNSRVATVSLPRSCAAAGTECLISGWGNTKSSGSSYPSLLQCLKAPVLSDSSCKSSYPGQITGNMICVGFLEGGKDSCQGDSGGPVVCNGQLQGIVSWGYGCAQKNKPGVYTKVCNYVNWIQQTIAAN

CAAX prenyl protease 2 [1] = biological target: CAAX prenyl protease 2 (Saccharomyces cerevisiae S288c, UniProt Q03530); format: biochemical
Chain of CAAX prenyl protease 2 (Saccharomyces cerevisiae S288c, UniProt Q03530) (Q03530 whole entry): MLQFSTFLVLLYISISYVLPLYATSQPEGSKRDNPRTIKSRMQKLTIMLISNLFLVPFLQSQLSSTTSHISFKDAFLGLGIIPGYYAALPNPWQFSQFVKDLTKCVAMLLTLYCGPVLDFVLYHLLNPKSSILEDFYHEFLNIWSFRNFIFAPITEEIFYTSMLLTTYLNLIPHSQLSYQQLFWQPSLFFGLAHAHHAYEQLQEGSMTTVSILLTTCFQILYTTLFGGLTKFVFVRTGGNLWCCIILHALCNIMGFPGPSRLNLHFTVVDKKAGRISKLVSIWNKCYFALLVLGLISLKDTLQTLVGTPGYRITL

CAAX prenyl protease 2 [2] = biological target: CAAX prenyl protease 2 (Homo sapiens, UniProt Q9Y256); assay: human Rce1 protease inhibitors, dose response, biochemical, yeast membranes, quenched-peptide fluorescence, cherry-pick (AID 588849)
Chain of CAAX prenyl protease 2 (Homo sapiens, UniProt Q9Y256) (Q9Y256 whole entry): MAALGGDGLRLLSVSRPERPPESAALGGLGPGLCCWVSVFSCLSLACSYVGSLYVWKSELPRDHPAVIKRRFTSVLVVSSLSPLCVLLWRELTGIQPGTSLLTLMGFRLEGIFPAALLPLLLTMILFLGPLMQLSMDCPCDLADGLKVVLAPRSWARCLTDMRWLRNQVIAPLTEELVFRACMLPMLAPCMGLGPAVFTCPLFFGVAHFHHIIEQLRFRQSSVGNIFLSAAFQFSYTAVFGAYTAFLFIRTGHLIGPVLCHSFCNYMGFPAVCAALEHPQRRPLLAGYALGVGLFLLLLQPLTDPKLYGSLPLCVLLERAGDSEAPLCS

Hexokinase-1 = Hexokinase-1 (Homo sapiens, UniProt P19367); assay: HK1 enzyme inhibition by HKDC1 hits, SAR follow-up, selectivity assay for HKDC1 inhibitor project, biochemical, set 2, resazurin fluorescence coupled readout (AID 588356); format: functional
Chain of Hexokinase-1 (P19367 whole entry): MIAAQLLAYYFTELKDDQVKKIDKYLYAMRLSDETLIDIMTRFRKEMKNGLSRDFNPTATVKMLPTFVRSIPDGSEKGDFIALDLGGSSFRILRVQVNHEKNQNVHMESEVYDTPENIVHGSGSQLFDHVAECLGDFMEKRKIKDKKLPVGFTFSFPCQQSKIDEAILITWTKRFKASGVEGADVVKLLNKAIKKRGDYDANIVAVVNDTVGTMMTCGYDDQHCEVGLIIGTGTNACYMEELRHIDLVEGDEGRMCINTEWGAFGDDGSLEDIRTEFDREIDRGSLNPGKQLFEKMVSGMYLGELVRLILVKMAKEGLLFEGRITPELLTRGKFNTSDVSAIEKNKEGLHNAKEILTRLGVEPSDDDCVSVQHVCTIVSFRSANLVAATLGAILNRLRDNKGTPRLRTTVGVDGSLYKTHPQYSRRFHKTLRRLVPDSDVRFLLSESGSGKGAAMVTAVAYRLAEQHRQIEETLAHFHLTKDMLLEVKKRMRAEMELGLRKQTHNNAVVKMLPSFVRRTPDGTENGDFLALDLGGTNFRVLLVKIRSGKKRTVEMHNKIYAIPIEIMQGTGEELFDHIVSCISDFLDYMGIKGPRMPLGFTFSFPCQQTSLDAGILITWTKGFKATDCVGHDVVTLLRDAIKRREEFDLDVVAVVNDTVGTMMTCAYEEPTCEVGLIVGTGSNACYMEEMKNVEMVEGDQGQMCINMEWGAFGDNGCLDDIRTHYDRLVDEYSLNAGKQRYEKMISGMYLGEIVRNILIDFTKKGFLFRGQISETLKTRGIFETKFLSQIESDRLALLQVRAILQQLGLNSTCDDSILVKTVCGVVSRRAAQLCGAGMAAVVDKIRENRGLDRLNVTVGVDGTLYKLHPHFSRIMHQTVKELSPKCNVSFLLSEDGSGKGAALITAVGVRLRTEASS

Hexokinase HKDC1 = Hexokinase HKDC1 (Homo sapiens, UniProt Q2TB90); assay: HKDC1 hexokinase inhibitors, SAR follow-up, biochemical, set 2 (AID 588355); format: functional
Chain of Hexokinase HKDC1 (Q2TB90 whole entry): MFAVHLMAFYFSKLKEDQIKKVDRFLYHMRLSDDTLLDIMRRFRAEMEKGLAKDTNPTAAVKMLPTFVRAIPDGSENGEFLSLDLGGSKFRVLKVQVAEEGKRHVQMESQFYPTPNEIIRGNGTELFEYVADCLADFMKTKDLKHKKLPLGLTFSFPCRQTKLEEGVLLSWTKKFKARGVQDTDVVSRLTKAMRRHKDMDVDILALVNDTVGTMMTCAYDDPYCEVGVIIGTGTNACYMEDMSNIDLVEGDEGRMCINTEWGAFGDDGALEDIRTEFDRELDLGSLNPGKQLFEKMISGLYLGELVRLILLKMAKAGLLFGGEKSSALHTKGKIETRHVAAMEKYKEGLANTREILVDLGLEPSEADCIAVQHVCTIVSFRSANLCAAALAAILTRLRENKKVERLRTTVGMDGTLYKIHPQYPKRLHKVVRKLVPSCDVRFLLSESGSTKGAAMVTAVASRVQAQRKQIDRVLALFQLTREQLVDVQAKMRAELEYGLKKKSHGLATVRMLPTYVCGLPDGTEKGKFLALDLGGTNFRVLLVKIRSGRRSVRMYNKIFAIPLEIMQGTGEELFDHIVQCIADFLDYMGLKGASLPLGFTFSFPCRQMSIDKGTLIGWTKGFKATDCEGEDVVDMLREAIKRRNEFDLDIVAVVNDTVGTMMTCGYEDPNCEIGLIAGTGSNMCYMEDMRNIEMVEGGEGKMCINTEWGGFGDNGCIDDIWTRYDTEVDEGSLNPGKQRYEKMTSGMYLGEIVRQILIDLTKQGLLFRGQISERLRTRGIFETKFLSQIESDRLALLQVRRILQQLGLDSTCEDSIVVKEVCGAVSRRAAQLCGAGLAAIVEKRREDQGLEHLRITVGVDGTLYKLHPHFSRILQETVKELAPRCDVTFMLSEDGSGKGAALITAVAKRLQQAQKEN

[3] = biological target: T1, Beta-2 adrenergic receptor (Homo sapiens, UniProt P07550); assay: beta2AR agonists driving receptor internalization, dose response, cell-based, FAP fluorogen, flow cytometry, cherry pick 1 (AID 588763); format: functional
T1 sequence (P07550 whole entry): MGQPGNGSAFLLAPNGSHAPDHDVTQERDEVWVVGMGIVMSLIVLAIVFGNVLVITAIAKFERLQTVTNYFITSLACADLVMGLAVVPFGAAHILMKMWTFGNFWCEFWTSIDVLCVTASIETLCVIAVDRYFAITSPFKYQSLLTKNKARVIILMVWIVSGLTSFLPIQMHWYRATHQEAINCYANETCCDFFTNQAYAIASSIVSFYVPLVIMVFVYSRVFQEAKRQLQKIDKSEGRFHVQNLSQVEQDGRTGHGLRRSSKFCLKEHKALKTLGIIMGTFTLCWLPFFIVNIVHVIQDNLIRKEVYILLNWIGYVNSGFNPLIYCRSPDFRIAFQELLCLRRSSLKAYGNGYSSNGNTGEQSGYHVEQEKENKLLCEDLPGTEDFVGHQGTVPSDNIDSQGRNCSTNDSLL

[4] = biological target: T1, Beta-2 adrenergic receptor; assay: Dose response for HTS for Beta-2AR agonists via FAP method from Powderset1.; format: functional

EC50 (Kallikrein-7): > 69.5 µM (inactive) | AC50 (Trypsin): 5.26 µM (active) | AC50 (CAAX prenyl protease 2 [1]): 48.9 µM (active) | AC50 (CAAX prenyl protease 2 [2]): 5.91 µM (active)
SMILES: CCNc1nc(C)c(CN(C(C)=O)c2ccccc2)nc1C#N

IC50 (Hexokinase-1): > 80 µM (inactive) | IC50 (Hexokinase HKDC1): 77.1 µM (inactive)
SMILES: CCOc1ccc(N2C(=O)c3cccnc3C2Nc2ccc(C)c(C)c2)cc1 (stereo not drawn)

EC50 [3]: 590 nM (active) and 280 nM (active) | EC50 [4]: 0.225 µM (active)
SMILES: COC(=O)c1ccc(NC(=O)COc2ccc(S(=O)(=O)N3CCCCC3)cc2)cc1
